Test results from patent US5496856A, “Aspartame for its application as a therapeutically active substance” (priority 1993, dated 1996).

Key:
DNA = DNA adducts by postlabeling with ATP gamma 32P in organs (genotoxicity); format: in vivo, rats; settings: OTA 289 μg/kg every 48 h, 3 weeks
Method: The animals used in this experiment are male rats of the Wistar strain weighing 160±10 g.
The aspartame is administered by gavage, at the same time as the ochratoxin A, every 48 hours for 3 weeks.
The control and treated rats are placed in a metabolic cage for 24 hours for urine sampling and then sacrificed.
The organs of the same animals were used for extraction of the DNA, which was analyzed by the technique of postlabeling with ATP gamma 32P in order to evaluate the genotoxicity by the presence of adducts with DNA bases.

human plasma proteins [1] = assay: OTA binding to human plasma proteins, condition (i): aspartame in upper (plasma) compartment; format: in vitro ADME
Method: (§1) A further study was performed in order to determine the effect of aspartame on OTA binding on human plasma proteins in vitro.
(§2) An in-vitro study was performed on plasma samples obtained from healthy human volunteers, from a French blood bank (Centre de transfusion sanguine in Bordeaux), using citrate as anticoagulant. Blood samples were centrifuged at 1800 g for 30 minutes. This pooled human plasma contained 41±3 g of proteins per liter.
(§3) Static diffusion cells (polypropylene, homemade according to the model provided by Nalgene, USA) containing two compartments (upper and lower) separated by a dialysing membrane having a 10 000 D exclusion limit (Sigma Chemical, USA) were used. This membrane allows OTA and aspartame diffusion and not protein diffusion.
(§4) A human plasma sample was placed in the upper compartment and a medium (RPMI 1640, Sigma chemical, USA) in the lower one.
(§5) The plasma binding properties of OTA were evaluated under two different conditions:
(i) The aspartame at a concentration of 10 μg/ml was added in the upper compartment containing human plasma proteins before introducing OTA at three different concentrations (20, 100, and 500 μg/ml) in the lower compartment;
(§6) OTA concentration in the upper compartment was determined by HPLC (Mobile phase: methanol, acetonitrile, acetic acid, sodium acetate 5 mM (300: 300: 400: 14 v/v/v/v); injection volume 50 μl; flow rate 1 ml/min; run time for one cycle: 10 min and fluorescence detection (excitation at 340 nm and emission at 465 nm).
(§7) Before extraction of OTA from the plasma, all the studied samples of plasma, which had already fixed OTA, were dialysed against free OTA RPMI medium for at least 15 minutes, one or several times, until no more OTA was found in the lower compartment.
(§8) The results obtained under condition (i) as defined hereinabove are reported in Table I, whereas the results obtained under condition (ii) are reported in Table II.

human plasma proteins [2] = assay: OTA binding to human plasma proteins, condition (ii): OTA with or without aspartame in lower compartment; format: in vitro ADME
Method: as §1, §2, §3, §4, §5
(ii) The upper compartment contained human plasma proteins only and OTA (20, 100 and 500 μg/ml) was added into the lower compartment alone or concommitantly with 10 μg/ml aspartame.
as §6, §7, §8
Under condition (ii) (Table II), the aspartame was put in the same compartment as OTA in the non-plasmatic compartment to mimic the stomach (the ration OTA/aspartame=1.5 to 36).

all animal species = settings: cited from earlier work; for toxicity: background statement
[3] = cited from earlier work; for efficacy in treatment of ochratoxicosis: doses of the order of several grams per day

C[C@@H]1Cc2c(Cl)cc(C(=O)N[C@@H](Cc3ccccc3)C(=O)O)c(O)c2C(=O)O1 [OTA, chlorodihydroisocoumarinylphenylalanine, reference compound]
DNA adducts in organs (liver, kidney, spleen, etc.), OTA-treated animals (DNA): Adducts are detected in large numbers | Quantities of OTA bound to plasma proteins, OTA alone (Table I) (human plasma proteins [1]; OTA 20 μg/ml, 30 min): 215 ± 11 ng/mL | Quantities of OTA bound to plasma proteins, OTA alone (Table I) (human plasma proteins [1]; OTA 20 μg/ml, 60 min): 431 ± 18 ng/mL | Quantities of OTA bound to plasma proteins, OTA alone (Table I) (human plasma proteins [1]; OTA 20 μg/ml, 120 min): 772 ± 25 ng/mL | Quantities of OTA bound to plasma proteins, OTA alone (Table I) (human plasma proteins [1]; OTA 100 μg/ml, 30 min): 442 ± 21 ng/mL | Quantities of OTA bound to plasma proteins, OTA alone (Table I) (human plasma proteins [1]; OTA 100 μg/ml, 60 min): 739 ± 17 ng/mL | Quantities of OTA bound to plasma proteins, OTA alone (Table I) (human plasma proteins [1]; OTA 100 μg/ml, 120 min): 1231 ± 17 ng/mL | Quantities of OTA bound to plasma proteins, OTA alone (Table I) (human plasma proteins [1]; OTA 500 μg/ml, 30 min): 556 ± 15 ng/mL | Quantities of OTA bound to plasma proteins, OTA alone (Table I) (human plasma proteins [1]; OTA 500 μg/ml, 60 min): 1175 ± 71 ng/mL | Quantities of OTA bound to plasma proteins, OTA alone (Table I) (human plasma proteins [1]; OTA 500 μg/ml, 120 min): 1744 ± 112 ng/mL | Quantities of OTA bound to plasma proteins, OTA alone (Table II) (human plasma proteins [2]; OTA 20 μg/ml, 30 min): 163 ± 42 ng/mL | Quantities of OTA bound to plasma proteins, OTA alone (Table II) (human plasma proteins [2]; OTA 20 μg/ml, 60 min): 488 ± 41 ng/mL | Quantities of OTA bound to plasma proteins, OTA alone (Table II) (human plasma proteins [2]; OTA 20 μg/ml, 120 min): 774 ± 43 ng/mL | Quantities of OTA bound to plasma proteins, OTA alone (Table II) (human plasma proteins [2]; OTA 100 μg/ml, 30 min): 491 ± 39 ng/mL | Quantities of OTA bound to plasma proteins, OTA alone (Table II) (human plasma proteins [2]; OTA 100 μg/ml, 60 min): 983 ± 48 ng/mL | Quantities of OTA bound to plasma proteins, OTA alone (Table II) (human plasma proteins [2]; OTA 100 μg/ml, 120 min): 1296 ± 61 ng/mL | Quantities of OTA bound to plasma proteins, OTA alone (Table II) (human plasma proteins [2]; OTA 500 μg/ml, 30 min): 539 ± 41 ng/mL | Quantities of OTA bound to plasma proteins, OTA alone (Table II) (human plasma proteins [2]; OTA 500 μg/ml, 60 min): 1347 ± 92 ng/mL | Quantities of OTA bound to plasma proteins, OTA alone (Table II) (human plasma proteins [2]; OTA 500 μg/ml, 120 min): 1899 ± 89 ng/mL

C[C@@H]1Cc2c(Cl)cc(C(=O)N[C@@H](Cc3ccc(O)cc3)C(=O)O)c(O)c2C(=O)O1 [Tyrosine-OTA]
genotoxic effects (all animal species; metabolite of OTA, Creppy et al., Arch. Toxicol. 64, 279-284 (1990)): seems to be one of the metabolites responsible for the genotoxic effects

C[C@@H]1Cc2ccc(C(=O)N[C@@H](Cc3ccccc3)C(=O)O)c(O)c2C(=O)O1 [ochratoxin B]
toxicity (all animal species): does not seem to be toxic

CCOC(=O)[C@H](Cc1ccccc1)NC(=O)c1cc(Cl)c2c(c1O)C(=O)O[C@H](C)C2 [ochratoxin C, ethyl ester of ochratoxin A]
toxicity (all animal species): effects comparable to those of ochratoxin A

N[C@@H](Cc1ccccc1)C(=O)O [phenylalanine]
action in chronic intoxication ([3]; chronic intoxication): very inadequate, if not non-existent | efficacy in treatment of ochratoxicosis [3]: not totally satisfactory | acute toxic effects of OTA and inhibition of protein synthesis ([3]; in vivo and in vitro): makes it possible to prevent the acute toxic effects and the inhibition of protein synthesis

O=C(O)O [sodium bicarbonate]
efficacy in treatment of ochratoxicosis [3]: still poor
